Structures can show the parent of a compound that is named as a salt.
Columns and labels:
[1] = tested on: human platelet aggregation (PAF-induced); assay: Platelet Aggregation Inhibition Assay test (PAIA test): inhibition of PAF-induced human platelet aggregation in vitro; type: cell-based; conditions: PAF-induced human platelet aggregation in PRP, 37° C., C-16 PAF 0.1 μM or 0.01 μM
Protocol: All of the compounds of formula I are useful as platelet activating factor inhibitors as indicated by their ability to inhibit platelet activating factor (PAF)-induced human platelet aggregation in vitro according to the Platelet Aggregation Inhibition Assay test (PAIA test) as follows:
Human subjects are kept aspirin free for one week and fasted overnight. Platelet rich plasma (PRP) is prepared by centrifugation (200×g.) of freshly drawn blood, anti-coagulated with 0.38% sodium citrate (final concentration). Platelet count is adjusted to 250,000 per μl using platelet poor plasma (PPP) obtained by a second centrifugation (700×g.) of the blood sample. An aliquot (0.38 ml.) of the PRP is dispensed into cuvettes and maintained at room temperature (22° C.) until used (but for not more than two hours). The PRP-containing cuvettes are incubated at 37° C. and stirred at 900 rpm within a Payton Aggregometer which is activated to follow the light deflection pattern prior to the addition of the test compound. […] Between one and two minutes after the addition of the test compound, the aggregation inducing agent (C-16 PAF-Sandoz-Hanover), dissolved in a buffer consisting of 0.01M Tris-Tyrodes buffer with 0.25% bovine serum albumin (pH 7.4), is added to the PRP-containing cuvettes in an amount predetermined to give a consistent aggregation response (either 0.1 μM or 0.01 μM). All aggregations are allowed to proceed for 6 minutes from the addition of the inducing agent. The aggregation response is quantitated by determining the area under the curve (AUC). The AUC calculated for the inducing agent alone is considered to be one hundred percent. The potential percent inhibition of the aggregation response is determined by dividing the AUC generated in the presence of the compound by the AUC of the inducing agent alone, multiplying by 100 and then subtracting from 100.

[2] = biological target: T1, Human Platelet PAF Receptor (Homo sapiens, UniProt P25105); assay: Human Platelet PAF Receptor Assay test (Test A): inhibition of specific binding of [3H]-PAF to platelets; conditions: [3H]-PAF specific binding to human platelets, room temperature, one hour
T1 construct: from tissue; host or cells: washed human platelets from blood of healthy donors
Protocol: Human blood is obtained by venipuncture of healthy, human donors into an anti-coagulant mixture containing 3.15% of trisodium citrate and 20 μg/ml of Prostaglandin I2 (PGI2) in a ratio of blood to anti-coagulant of 9:1. Platelet rich plasma (PRP) is prepared by centrifugation (250×g) of the blood for 20 minutes at room temperature. The PRP is then centrifuged (900×g) for 10 minutes at room temperature and the platelet pellet is washed two times with Tris-Tyrode's (TT) solution having a pH of 7.4 and containing 0.25% bovine serum albumin (BSA), and to which has been added PGI2 at a final concentration of […]. The platelets are resuspended at […] in TT/BSA containing 1.4 mM CaCl2.2H2 O and 0.7 mM MgCl2.6H2 O. All of the tests are conducted in duplicate and each of the test compounds is evaluated at concentrations of 100, 50, 1 and 0.1 μM. For each determination, the following solutions are mixed:
500 μl of the above-described platelets;
10 μl of [^3 H]-PAF (40,000 counts per minute (cpm) to a final concentration of […]); and
10 μl of the test compound at 50× the desired final concentration,
10 μl of vehicle (total bound), or
10 μl of 1.85×10^-5 M cold PAF (non-specifically bound).
Each mixture is allowed to incubate at room temperature for one hour, after which time the reaction is terminated by the addition of 500 μl of ice cold TT/BSA and centrifugation (900×g) at 4° C. for 10 minutes. […] An additional 2 ml. of Scintiverse II is then added to the vials and, after mixing, the vials are counted for 1 minute in a liquid scintillation spectrometer. The amount of specific binding is calculated as the difference in cpm between the total bound [^3 H]-PAF and non-specifically bound [^3 H]-PAF. The percent inhibition of specific binding is determined by dividing the cpm specifically bound in the presence of the test compound by the cpm specifically bound in total, multiplying by 100 and then subtracting from 100. […]

[3] = tested on: PAF-mediated extravasation in guinea pigs; assay: PAF-induced Extravasation test (Test C), hemoconcentration (hematocrit); type: in vivo, guinea pig; conditions: Cavia porcellus, ia, PAF 100 ng/kg iv, inhibition of percent increase in hematocrit
Protocol: Still further, the compounds of formula I are useful as inhibitors of PAF-mediated extravasation (the extrusion of plasma from the lumen of the blood vessels into the vessel wall and surrounding tissues) measured as a function of hemoconcentration according to the PAF-induced Extravasation test (Test C) as follows.
Male guinea pigs, weighing between 300 and 400 gm, are anesthetized, after which time a femoral catheter is inserted. The test compound is administered intraarterially at one to five minutes prior to the introduction of PAF. The PAF (C18 -Sandoz, Hanover) is dissolved in Tris-Tyrode's bovine serum albumin buffer and administered intravenously (jugular) at 100 ng/kg.
To determine the hematocrit value, which is employed to index hemoconcentration and is defined as the percent of packed red blood cells in a sample of blood which is centrifuged to separate plasma from the cellular components, blood samples are collected in 50 μl heparinized hematocrit tubes. […] The tubes are then centrifuged and the percent of packed red blood cells (hematocrit) is measured (PAF induces a maximal increase in hematocrit at 5 to 7 minutes subsequent to the injection of PAF). The percent increase in hematocrit over the value prior to the injection of PAF is calculated. […]

[4] = tested on: PAF-induced hypotension in Wistar rats; assay: Inhibition of PAF-induced hypotension (Test D); type: in vivo, rat (male Wistar); conditions: male Wistar rats
Protocol: Yet still further, the compounds of formula I are useful as inhibitors of PAF-induced hypotension as measured by their ability to inhibit the lowering of blood pressure levels induced by PAF according to the following test (Test D):
Male Wistar rats, weighing approximately 300 gm, are anesthetized and their carotid arteries cannulated to enable their diastolic and systolic arterial blood pressure measurements to be recorded. PAF is then administered intravenously at either 100 or 500 ng/kg, and the blood pressure drop (within 10 sec.) and recovery time required to reach the pre-injection blood pressure level are measured. At 100 ng/kg, a 30% decrease in blood pressure and a 3 to 4 minute recovery time are observed, whereas at 500 ng/kg, a 52% decrease in blood pressure and a 10 minute recovery time are observed. In order to measure the effectiveness of a compound for both the inhibition of blood pressure decreases and shortening of the recovery time, the test compound is administered intravenously over a range of between 5 and 7 dosage levels (1 or 2 test animals per dose) and between 1 and 5 minutes prior to the introduction of PAF to generate an ED50.

[5] = tested on: PAF-mediated bronchoconstriction in guinea pigs; assay: PAF-induced Pulmonary Inflation Pressure (PIP) Increase test (Test B); type: in vivo, guinea pig; conditions: PAF 100 ng/kg iv, slowly decreases to baseline
Protocol: Furthermore, in view of their usefulness as PAF receptor antagonists, the compounds of formula I have been found useful as inhibitors of PAF-mediated bronchoconstriction, which property was evaluated by the PAF-induced Pulmonary Inflation Pressure (PIP) Increase test (Test B) as follows:
Male guinea pigs, weighing between 300 and 400 gm, are anesthetized, after which time trachea tube, carotid and jugular catheters are inserted. The test animal is then force ventilated employing a small animal Harvard respirator and the resistance to lung inflation (PIP) is measured utilizing a pressure transducer and recorder. The test compound is administered either orally at 30 minutes prior to or intravenously (jugular) at 5 minutes prior to the introduction of PAF. The PAF (C18 -Sandoz, Hanover) is dissolved in Tris-Tyrode's bovine serum albumin buffer and administered intravenously (jugular) at 100 ng/kg. Any blood pressure measurements taken are recorded from a transducer attached to the carotid catheter. […] A reading at 15 minutes after the administration of PAF is termed the endpoint PIP. The effect of the test compound on the PIP response is determined by the difference between the percent increase in maximal PIP over baseline for the test animal to which has been administered PAF and the test compound compared to the test animal to which only PAF has been administered.

T1 sequence (P25105 whole entry): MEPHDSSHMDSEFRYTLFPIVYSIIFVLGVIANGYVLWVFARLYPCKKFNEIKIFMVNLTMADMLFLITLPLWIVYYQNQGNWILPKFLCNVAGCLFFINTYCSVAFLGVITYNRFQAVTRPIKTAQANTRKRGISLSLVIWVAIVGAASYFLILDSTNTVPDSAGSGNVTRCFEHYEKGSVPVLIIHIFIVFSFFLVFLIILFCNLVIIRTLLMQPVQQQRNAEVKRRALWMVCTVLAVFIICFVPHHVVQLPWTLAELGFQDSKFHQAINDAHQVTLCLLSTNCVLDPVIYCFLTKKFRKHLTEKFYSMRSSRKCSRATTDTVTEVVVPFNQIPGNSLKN

IC50 [1]	IC50 [2]	Compound	ED50 [3]	ED50 ([4]; Rattus norvegicus, iv, PAF-induced hypotension)	duration of long term PIP response [5]	decrease in blood pressure ([4]; PAF 100 ng/kg iv)	decrease in blood pressure ([4]; PAF 500 ng/kg iv)	recovery time to pre-injection blood pressure level ([4]; PAF 500 ng/kg iv)
3.5 µM	0.47 µM	CCCCCCCCCCCCCCCCCCNC(=O)OCC1(COP(=O)([O-])OCC[n+]2ccsc2)CCCO1 (stereo not shown) [Example 3, 3-[2-[(2-Octadecylaminocarbonyloxymethyltetrahydrofuran-2-yl-methoxy)-hydroxyphosphinyloxy]-ethane]-thiazolium hydroxide inner salt-4-oxide]	0.3 mg/kg	1.5 mg/kg	–	–	–	–
81.5 µM	3.3 µM	CCCCCCCCCCCCCCCCCCOCC1(COP(=O)([O-])OCC[n+]2ccsc2)CCCO1 (stereo not shown) [Example 2, 3-[2-[(2-Octadecyloxymethyltetrahydrofuran-2-yl-methoxy)-hydroxyphosphinyloxy]-ethane]-thiazolium hydroxide inner salt-4-oxide]	–	–	–	–	–	–
10.5 µM	1.8 µM	CCCCCCCCCCCCCCCCCCOCCC1(COP(=O)([O-])OCC[n+]2ccsc2)CCC(=O)O1 (stereo not shown) [Example 1, 3-[2-[(2-Octadecyloxy)ethyl-5-oxo-tetrahydrofuran-2-yl]methoxyhydroxyphosphinyloxy-ethane]thiazolium hydroxide-inner salt-4-oxide]	0.25 mg/kg	–	–	–	–	–
–	–	1-O-alkyl-2-acetyl-sn-glyceryl-3-phosphorylcholine [PAF]	–	–	at least 30 minutes	30%	52%	10 min
